Assay: Solubility / compatibility of the organic solvents in water at 60° C.
Format: physicochemical
Description: The above component (A) in the present invention is a polar organic solvent having low compatibility with water. The expression “low compatibility with water” means that only a small amount of the component dissolves in water, the solubility in water at 60° C., that is, the proportion of a portion soluble in water is preferably 50 vol % or less, more preferably 30 vol % or less. The expression “polar organic solvent” means an organic solvent having a relative dielectric constant of preferably 8 or more, more preferably 10 or more.
The organic solvents used in the examples and comparative examples are as follows.

Row | Compound | compatibility with water at 60° C. | solubility in water at 60° C. [vol %]
1 | CCN1CCN(C)C1=O [DEI, 1-ethyl-3-methyl-2-imidazolidinone] | compatible with water at 60 °C in any ratio | 
2 | COC(C)COC(C)CO (centres unmarked) [DPM, dipropylene glycol monomethyl ether, reference compound] | compatible with water at 60 °C in any ratio | 
3 | CCCN1CCN(CCC)C1=O [DPI, 1,3-dipropyl-2-imidazolidinone] |  | 12
4 | CCOCC(C)OCC(C)OCC (centres unmarked) [DPDE, dipropylene glycol diethyl ether] |  | 5
5 | CN1CCN(C)C1=O [DMI, 1,3-dimethyl-2-imidazolidinone] | compatible with water at 60 °C in any ratio | 
6 | CCCCOCC(C)O (centres unmarked) [PB, propylene glycol monobutyl ether] |  | 6
7 | CCCCCCCCN1CCCC1=O [NOP, N-octylpyrrolidone] |  | 13
8 | CCCOC(C)COC(C)CO (centres unmarked) [DPP, dipropylene glycol monopropyl ether] |  | 10

Reference: patent US6576600B1, “Detergent” (Tokuyama Corporation, priority 1999, dated 2003)
